Measurements reported in ChEMBL document CHEMBL3045136, “QSAR and flexible docking studies of some aldose reductase inhibitors obtained from natural origin” (Med Chem Res, 2012).

target: Aldo-keto reductase family 1 member B1 (Rattus norvegicus, UniProt P07943); assay: Inhibition of Rattus norvegicus (rat) lens aldose reductase

IC50	SMILES
2 µM	CC(C(=O)O)N1C(=O)c2cc3c(c(O)c2C1=O)CC([C@@H](C)C(=O)O)O3 (some centres undefined)
10 µM	COc1cc2c(=O)oc3c(O)c(O)cc4c(=O)oc(c1O)c2c34
2.4 µM	O=C(O)C1Cc2c(oc(=O)c3cc(O)c(O)c(O)c23)C1=O (centres undefined)
5.01 µM	CCOC(=O)C1Cc2c(oc(=O)c3cc(O)c(O)c(O)c23)C1=O (centres undefined)
55 µM	CCCC/C=C/CCCCCCCCCC1=C(OC)C(=O)C=C(OC)C1=O
0.1 µM	CC(=O)C[C@@]1(O)C(=O)C2=C(OC[C@@H]2C)c2ccc3c(C)cccc3c21
1.74 µM	CC(=O)C[C@@]1(O)C(=O)C2=C(OC[C@@H]2C)c2ccc3c(c21)CCCC3(C)C
2.63 µM	O=C(/C=C/c1ccc(O)c2c1[C@H](C(=O)O[C@@H](Cc1ccc(O)c(O)c1)C(=O)O)[C@@H](c1ccc(O)c(O)c1)O2)O[C@H](Cc1ccc(O)c(O)c1)C(=O)O
2.82 µM	O=C(/C=C/c1ccc(O[C@@H](C(=O)O)[C@@H](O)c2ccc(O)c(O)c2)c(O)c1)O[C@H](Cc1ccc(O)c(O)c1)C(=O)O
3.16 µM	O=CC(O)C(O)(Oc1ccc(/C=C/C(=O)O[C@H](Cc2ccc(O)c(O)c2)C(=O)O)cc1O)C(O)C(O)CO (some centres undefined)
55 µM	C=C(C)[C@@H]1CC=C(COC2OC(CO)[C@H](O)[C@H](O)[C@H]2O)CC1 (some centres undefined)
14.5 µM	C=C(C)[C@@H]1CC=C(COC2OC(CO)[C@H](O)[C@@H](O)[C@@H]2O)CC1 (some centres undefined)
47.9 µM	CC(=O)O[C@H]1C[C@]2(CO)C3CC[C@@]4(C)C(C(=O)CC(=O)[C@@H]4C)[C@]3(C)CC[C@@]2(C)C2CC(C)(C)CC[C@@]21C (some centres undefined)
55 µM	CC1(C)C2CC[C@]3(C)C(CC=C4C5C[C@](C)(C(=O)O)C[C@@H](O)[C@]5(C)CC[C@]43C)[C@@]2(C)CC[C@@H]1O (some centres undefined)
75.9 µM	CC1(C)C2CC[C@]3(C)C(CC=C4C5C[C@](C)(C(=O)O)C[C@H](O)[C@]5(C)CC[C@]43C)[C@@]2(C)CC[C@@H]1O (some centres undefined)
38.9 µM	CC(C)c1ccc2c(c1)CCC1[C@@](C)(CO)CCC[C@]21C (some centres undefined)
35.5 µM	CC(C)c1ccc2c(c1)CCC1[C@@](C)(C(=O)O)CCC[C@]21C (some centres undefined)
28.8 µM	CC(=O)c1c(O)cc(O)cc1O[C@@H]1OC(COC(=O)c2cc(O)c(O)c(O)c2)[C@H](O)[C@H](O)[C@@H]1O (some centres undefined)
1.82 µM	O=C(/C=C/c1ccc(O)c(O)c1)OC1C[C@](O)(C(=O)O)C[C@H](O)[C@@H]1O (some centres undefined)
95.5 µM	CC1(C)C[C@H](O)[C@]23CC[C@@H](O)[C@](C)(CCC12)C3 (some centres undefined)
44.7 µM	CC1(C)CC2C1CC[C@@]1(C)C[C@]2(O)CC[C@@H]1O (some centres undefined)
38 µM	COc1cc2c(c(OC)c1OC)-c1c(cc(O)c(OC)c1OC)C[C@H](C)[C@H](C)[C@H]2O
100 µM	COc1cc(C(=O)/C(C)=C(/C)C(=O)c2ccc(O)c(OC)c2)ccc1O

IC50	SMILES
34.7 µM	CCOc1ccc(C(=O)/C(C)=C(/C)C(=O)c2ccc(O)c(OC)c2)cc1OC
35.5 µM	COc1cc(/C=C(/C)[C@H](C)Cc2ccc(O)c(OC)c2)ccc1O
25.1 µM	COc1cc([C@H]2O[C@H](c3ccc(O)c(OC)c3)[C@@H](C)[C@H]2C)ccc1O
12 µM	CC(CCC(=O)O)N1Cc2c(cc3c(c2O)CC([C@@H](C)C(=O)O)O3)C1=O (some centres undefined)
1.26 µM	C[C@@H](C(=O)O)C1Cc2c(cc3c(c2O)CN(CC(=O)O)C3=O)O1 (some centres undefined)
4.47 µM	CC(C(=O)O)N1Cc2c(cc3c(c2O)CC([C@@H](C)C(=O)O)O3)C1=O (some centres undefined)
5.37 µM	C[C@@H](C(=O)O)C1Cc2c(cc3c(c2O)C(=O)NC3=O)O1 (some centres undefined)
0.447 µM	C[C@@H](C(=O)O)C1Cc2c(cc3c(c2O)C(=O)N(CC(=O)O)C3=O)O1 (some centres undefined)
8.71 µM	CC(=O)C1=C(O)C2=CO[C@H](C)[C@@H](C)C2=C(C)C1=O
12 µM	Cc1cc(C(=O)O)c(O)c2c1[C@H](C)[C@@H](C)OC2
19.1 µM	O=C1CC(O)C1=O (centres undefined)
0.00129 µM	COC(=O)c1cc2cc3cc4cc(CC(=O)O)c(C(=O)/C=C(\O)c5ccccc5O)c(OC)c4c(OC)c3c(O)c2c(=O)o1
46.8 µM	C=C(C)C1CCC(CO[C@H]2OC(CO)C(O)[C@H](O)[C@@H]2O)CC1 (some centres undefined)
28.2 µM	C=C(C)C1CCC(COC2O[C@H](CO)[C@H](O)[C@@H](O)C2O)CC1 (some centres undefined)
100 µM	COc1cc2c(c(OC)c1C)COC(C)C2 (centres undefined) [6,8-DIMETHOXY-3,7-DIMETHYLISOCHROMAN]
33.1 µM	COc1cc2c(c(O)c1C)COC(C)C2 (centres undefined) [6-METHOXY-3,7-DIMETHYLISOCHROMAN-8-OL]
182 µM	O=Cc1ccc(CO)o1 [AES-103]
0.871 µM	Cc1cccc2c3c(ccc12)C(=O)C(C(C)CO)=C(O)C3=O (centres undefined) [DANSHENXINKUN A]
43.7 µM	O=C1C(O)=CC(=O)c2c(O)cc(O)cc21 [FLAVIOLIN]
38 µM	COc1cc([C@H]2O[C@@H](c3ccc(O)c(OC)c3)[C@H](C)[C@@H]2C)ccc1O [NECTANDRIN B]
3.89 µM	O=C(/C=C/c1ccc(O)c(O)c1)O[C@H](Cc1ccc(O)c(O)c1)C(=O)O [ROSMARINIC ACID]
10 µM	Cc1coc2c1C(=O)C(=O)c1c-2ccc2c(C)cccc12 [TANSHINONE I]
21.4 µM	COc1cc([C@H]2O[C@@H](c3ccc(O)c(OC)c3)[C@@H](C)[C@H]2C)ccc1O [TETRAHYDROFUROGUAIACIN B]

SMILES	IC50
CNC(=O)Oc1c(C)c(OC)cc2c1COC(C)C2 (centres undefined)	34.7 µM
C[C@H]1COC2=C1C(=O)C(=O)c1c2ccc2c1CCCC2(C)C [CRYPTOTANSHINONE]	4.79 µM
Cc1cccc2c3c(ccc12)C1=C(C(=O)C3=O)[C@@H](C)CO1 [DIHYDROTANSHINONE I]	1.2 µM
